# Test results as given in patent US9295697B2, “Episomal reprogramming with chemicals” (Cellular Dynamics International, Inc., priority 2009, dated 2016).
# Assays:
# [1] = tested on: human foreskin fibroblasts; assay: Episomal reprogramming of human foreskin fibroblasts with small molecules on MEF feeder cells, alkaline phosphatase positive colonies (Example 2); type: cell-based
# Description: FIGS. 5A-5C. Improving episomal reprogramming efficiency with small molecules. FIG. 5A. Effects of PD0325901 (P, 0.5 μM), CHIR99021(C, 3 μM), A-83-01(A, 0.5 μM), hLIF (L, 1000 U/ml) and HA-100 (H, 10 μM) on episomal reprogramming. FIG. 5B Temporal requirement of small molecule treatment for improved episomal reprogramming. Transfected human foreskin fibroblasts were plated to MEF feeder cells. MEF-conditioned human ESC medium supplemented with 100 ng/ml bFGF (CM100) and small molecules was used to support reprogramming. Alkaline phosphatase positive iPSC colonies were counted on day 22-23 post-transfection. The number of iPSC colonies was from ˜0.33×10^6 input cells. Data shown are mean±standard error (s.e.m.) (n=3). FIG. 5C. Differentiation of the newly derived iPSCs (p3) in the presence of small molecules. […] The addition of bFGF in the culture medium had no effect. Black arrow: undifferentiated iPSC colonies; white arrows: differentiated colonies. Scale bars: 100 μm.
# FIGS. 6A-6D. Developing feeder-free conditions for episomal reprogramming. FIG. 6A. Effects of MEF feeder cells, Matrigel™ and culture media on episomal reprogramming. Transfected human foreskin fibroblasts (p6) were plated to MEF feeder cell-seeded or Matrigel™-coated 10-cm dishes, and subjected to different reprogramming culture conditions. Alkaline phosphatase positive (AP^+) colonies were counted on day 18-21 post-transfection. The number of AP+ colonies was from ˜0.33×10^6 input cells. Data shown are mean±s.e.m. (n=3). N2B27: DMEM/F12 medium supplemented with N-2 and B-27; N2B27-100: N2B27 medium supplemented with 100 ng/ml bFGF. *marks piPSCs. FIG. 6B. Bright-field images of a piPSC colony from test 2 and a human ESC-like iPSC colony from test 1, 3 and 4. Scale bars: 100 μm. FIG. 6C. Quantitative RT-PCR analysis of OCT4 and NANOG expression in piPSC clone 1 to 4 (p3). Total: both endogenous and transgene expression. Human H1 ESCs (H1ESC, p32) were used as a control. Data shown are mean±s.e.m. (n=3). FIG. 6D. Temporal requirement of small molecule treatment for feeder-free episomal reprogramming using defined culture media. Transfected human foreskin fibroblasts (p7) were plated to Matrigel™-coated 10-cm dishes. N2B27-100 medium supplemented with PCALH was used to support reprogramming for different time windows (stage 2) followed by mTeSR1 for expansion. Alkaline phosphatase positive iPSC colonies were counted on day 22 post-transfection. The number of iPSC colonies was from ˜0.33×10^6 input cells. Data shown are mean±s.e.m. (n=3).
# Episomal reprogramming vectors containing expression cassettes for human OCT4, SOX2, NANOG, LIN28, c-MYC, KLF4 and SV40LT transgenes were as previously described (Yu et al., 2009). Specifically, vector pEP4EO2SCK2MEN2L and pEP4EO2SET2K (combination 4) were used for reprogramming optimization. About 7.3 μg of vector pEP4EO2SCK2MEN2L and 3.2 μg of pEP4EO2SET2K were co-transfected into human neonatal foreskin fibroblasts via nucleofection (NHDF-VPD-1001 with U-20 program, Amaxa, Walkersville, Md.). Transfected fibroblasts (˜1.0×10^6 cells per nucleofection) were plated directly to 3×10-cm MEF-seeded dishes or 3×10-cm Matrigel™-coated dishes in fibroblast culture medium. The next day after transfection, fibroblast medium was replaced with MEF-conditioned human ESC medium supplemented with 100 ng/ml zbFGF (CM100), or chemically defined N2B27 medium (N2B27), or N2B27 medium supplemented with 100 ng/ml zbFGF (N2B27-100), or mTeSR1. The N2B27 medium consists of DMEM/F12 culture medium supplemented with N-2 supplement (1×, Invitrogen), B-27 supplement (1×, Invitrogen), 0.1 mM non-essential amino acids, 1 mM GlutaMAX, and 0.1 mM β-mercaptoethanol. Where applied, small molecules PD0325901 (P, 0.5 μM), CHIR99021(C, 3 μM), A-83-01(A, 0.5 μM) (all from Stemgent, San Diego, Calif.), hLIF (L, 1000 U/ml, Millipore, Billerica, Mass.) and HA-100 (H, 10 μM) were added to reprogramming culture. Culture medium was refreshed every two days. […]
# [2] = tested on: human foreskin fibroblasts; assay: Episomal reprogramming of human foreskin fibroblasts with chemical compounds on MEF feeders, alkaline phosphatase positive iPS cell colonies (Example 1); type: cell-based; conditions: for effect on episomal reprogramming when added to PD0325901, CHIR99021 and A-83-01: in combination with PD0325901 (0.5 μM), CHIR99021 (3 μM), A-83-01 (0.5 μM)
# Excerpt: FIGS. 1A-1C. Improving episomal reprogramming of human foreskin fibroblasts with small chemical compounds. FIG. 1A. Episomal reprogramming vectors. pEF: the eukaryotic elongation factor 1α promoter; pCMV: the cytomegalovirus immediate-early promoter. Transgenes and other features of vectors are indicated by different colors as shown. FIG. 1B. Effects of different combinations of chemical compounds on episomal reprogramming efficiency. FF medium: human foreskin fibroblast culture medium; CM: human ES cell culture medium previously conditioned with irradiated mouse embryonic fibroblast feeder cells. bFGF was used at 100 ng/ml final concentration. B: BIX01294 (1 μM); P: PD0325901 (0.5 μM); C: CHIR99021 (3 μM); A: A-83-01 (0.5 μM). Total: total # of alkaline phosphatase positive iPS cell colonies; Large: # of large-size good undifferentiated alkaline phosphatase positive iPS cell colonies. FIG. 1C. Images of a good iPS cell colony obtained by episomal reprogramming in the presence of chemical compounds. Left: bright-field; right: alkaline phosphatase staining.
# FIGS. 2A-2B. Improving episomal reprogramming of human foreskin fibroblasts with small chemical compounds. FIG. 2A. Effects of bFGF and different combinations of chemical compounds on episomal reprogramming efficiency. FF medium: human foreskin fibroblast culture medium; CM: human ES cell culture medium previously conditioned with irradiated mouse embryonic fibroblast feeder cells. bFGF was used at 100 ng/ml final concentration. H: HA-100 (10 μM); B: BIX01294 (1 μM); P: PD0325901 (0.5 μM); C: CHIR99021 (3 μM); A: A-83-01 (0.5 μM); L: hLIF (10 ng/ml). Total: total # of alkaline phosphatase positive iPS cell colonies; Large: # of large-size good undifferentiated alkaline phosphatase positive iPS cell colonies. FIG. 2B. Timing of chemical compound treatment on episomal reprogramming efficiency. CM supplemented with bFGF (100 ng/ml) and HA-100 (10 μM) was used in reprogramming culture.
# FIGS. 4A-4B. Episomal reprogramming in defined medium supplemented with chemical compounds. FIG. 4A. Effect of different culture medium on episomal reprogramming in the presence of PD0325901 (0.5 μM), CHIR99021 (3 μM), A-83-01 (0.5 μM) and hLIF (10 ng/ml). FF medium: human foreskin fibroblast culture medium; CM: human ES cell culture medium previously conditioned with irradiated mouse embryonic fibroblast feeder cells. bFGF was used at 100 ng/ml final concentration. H: HA-100 (10 μM); B: BIX01294 (1 μM); P: PD0325901 (0.5 μM); C: CHIR99021 (3 μM); A: A-83-01 (0.5 μM); L: hLIF (10 ng/ml). Total: total # of alkaline phosphatase positive iPS cell colonies; Large: # of large-size good undifferentiated alkaline phosphatase positive iPS cell colonies. FIG. 4B. Sketch of the three-step reprogramming process for the derivation of normal human ES cell-like iPS cells and piPS cells.
# For episomal reprogramming of human somatic cells, human foreskin fibroblasts, episomal vectors (FIG. 1A, 7.3 μg of pEP4EO2SCK2MEN2L and 3.2 μg of pEP4EO2SET2K) (Yu et al., 2009) were cotransfected into 1×10^6 cells via nucleofection (NHDF-VPD-1001 with program U-20, Amaxa, Walkersville, Md.). Transfected foreskin fibroblasts from each nucleofection were directly plated to 3×10-cm MEF-seeded dishes in fibroblast culture medium. For adult skin fibroblasts, 7.3 μg of pEP4EO2SCK2MEN2L and 6.4 μg of pEP4EO2SET2K were cotransfected into 1×10^6 cells via nucleofection (NHDF-VPD-1001 with program U-20, Amaxa). Transfected adult skin fibroblasts from each nucleofection were directly plated to 1×10-cm MEF-seeded dish in fibroblast culture medium due to lower cell survival. […]
# [3] = LIF added to PD0325901, CHIR99021 and A-83-01
compound,measurement,setting,value
"Cc1cccc(-c2nn(C(=S)Nc3ccccc3)cc2-c2ccnc3ccccc23)n1 [A-83-01, 3-(6-Methyl-2-pyridinyl)-N-phenyl-4-(4-quinolinyl)-1H-pyrazole-1-carbothioamide]","effect on episomal reprogramming, alone / on its own","[1]; CM100, MEF feeder cells",minimal effect
same,"effect on episomal reprogramming, together with the MEK inhibitor PD0325901","[1]; CM100, MEF feeder cells",minimal effect
COc1cc2nc(N3CCCN(C)CC3)nc(NC3CCN(Cc4ccccc4)CC3)c2cc1OC [BIX01294],"effect on reprogramming by episomal vectors, compound on its own",[2]; BIX01294 1 μM,could improve reprogramming
same,"effect on episomal reprogramming when added to PD0325901, CHIR99021 and A-83-01",[2],no or only slight benefit
Cc1cncc2cccc(S(=O)(=O)N3CCCNC[C@@H]3C)c12 [H-1152],replacement of HA-100 in episomal reprogramming,[1],could not be replaced
O=S(=O)(c1cccc2cnccc12)N1CCNCC1 [HA-100],"effect on episomal reprogramming, alone / on its own","[1]; CM100, MEF feeder cells",minimal effect
same,"episomal reprogramming efficiency in the presence of PD0325901, CHIR99021, A-83-01 and hLIF",[1]; HA-100 10 μM,further increased
Cc1ccc2c(c1)C(=O)C1(O)CCN(c3ccccc3)C1=N2 (centres unmarked) [blebbistatin],replacement of HA-100 in episomal reprogramming,[1],could not be replaced
hLIF: human leukemia inhibitory factor,"first appearance of iPS cells, day post transfection",[2]; [3],~14 days
same,"first appearance of iPS cells, earlier by",[2]; [3],3 to 4 days
same,large iPS cell colonies,[2]; [3],more large iPS cell colonies
same,"effect on episomal reprogramming when added to PD0325901, CHIR99021 and A-83-01",[2],further facilitated
same,effect of hLIF on episomal reprogramming efficiency,[1]; hLIF 1000 U/ml,did not significantly improve
same,proliferation of reprogramming intermediates,[1]; hLIF 1000 U/ml,increased
